# According to US11739098B2 (BRISTOL-MYERS SQUIBB COMPANY, priority 2017, dated 2023):
# What was measured:
# Format in all cases: cell-based
# [1] = target: T1, human TLR7 (Homo sapiens, UniProt Q9NYK1); experiment: TLR7 inhibition reporter assay (HEK-Blue cells, SEAP reporter, gardiquimod stimulation); conditions: HEK-Blue cells overexpressing human TLR7, SEAP reporter, gardiquimod 7.5 μM
# T1 construct: host or cells: HEK-Blue cells (HEK293-derived reporter line)
# T1 sequence (Q9NYK1 27-1049): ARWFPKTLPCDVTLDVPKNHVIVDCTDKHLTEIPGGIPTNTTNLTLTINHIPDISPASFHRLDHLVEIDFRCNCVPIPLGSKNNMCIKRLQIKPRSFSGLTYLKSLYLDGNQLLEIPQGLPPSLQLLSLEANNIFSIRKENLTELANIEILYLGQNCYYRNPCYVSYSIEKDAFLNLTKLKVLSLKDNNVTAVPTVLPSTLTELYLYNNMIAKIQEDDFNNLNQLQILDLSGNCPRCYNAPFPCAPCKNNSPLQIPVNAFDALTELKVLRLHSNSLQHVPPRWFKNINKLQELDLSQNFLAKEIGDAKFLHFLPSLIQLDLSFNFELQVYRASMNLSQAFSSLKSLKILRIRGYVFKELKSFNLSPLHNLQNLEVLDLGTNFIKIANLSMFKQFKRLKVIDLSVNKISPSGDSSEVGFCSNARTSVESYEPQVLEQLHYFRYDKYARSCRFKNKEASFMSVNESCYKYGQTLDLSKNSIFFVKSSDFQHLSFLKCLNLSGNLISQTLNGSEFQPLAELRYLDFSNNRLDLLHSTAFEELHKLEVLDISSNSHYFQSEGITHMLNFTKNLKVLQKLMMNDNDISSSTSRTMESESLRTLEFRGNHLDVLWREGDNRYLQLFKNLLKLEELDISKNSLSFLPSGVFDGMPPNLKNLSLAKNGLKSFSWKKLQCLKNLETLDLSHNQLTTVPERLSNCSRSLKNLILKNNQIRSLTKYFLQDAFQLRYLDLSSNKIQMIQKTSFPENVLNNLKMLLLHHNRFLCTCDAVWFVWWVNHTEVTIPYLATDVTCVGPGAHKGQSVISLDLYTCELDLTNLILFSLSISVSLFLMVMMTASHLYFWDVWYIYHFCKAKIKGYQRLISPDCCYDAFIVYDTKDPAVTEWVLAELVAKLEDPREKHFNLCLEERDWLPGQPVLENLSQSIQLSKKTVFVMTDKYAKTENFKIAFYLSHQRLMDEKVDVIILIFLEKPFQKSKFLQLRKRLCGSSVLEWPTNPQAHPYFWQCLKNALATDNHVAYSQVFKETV
# How it was run: (§1)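 Read-out is SEAP activity in HEK-Blue detection medium after 22 h at 37 °C, converted to percent inhibition against agonist-plus-DMSO and reference-inhibitor controls. Cells saw compound (0.05 nM–50 μM, 30 min, room temperature) before gardiquimod 7.5 μM, R848 15.9 μM or ODN2006 5 nM for TLR7, TLR8 and TLR9, respectively.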
# [2] = target: T2, human TLR9 (Homo sapiens, UniProt Q9NR96); experiment: TLR9 inhibition reporter assay (HEK-Blue cells, SEAP reporter, ODN2006 stimulation); conditions: HEK-Blue cells overexpressing human TLR9, SEAP reporter, ODN2006 5 nM
# T2 construct: host or cells: HEK-Blue cells (HEK293-derived reporter line)
# T2 sequence (Q9NR96 26-1032): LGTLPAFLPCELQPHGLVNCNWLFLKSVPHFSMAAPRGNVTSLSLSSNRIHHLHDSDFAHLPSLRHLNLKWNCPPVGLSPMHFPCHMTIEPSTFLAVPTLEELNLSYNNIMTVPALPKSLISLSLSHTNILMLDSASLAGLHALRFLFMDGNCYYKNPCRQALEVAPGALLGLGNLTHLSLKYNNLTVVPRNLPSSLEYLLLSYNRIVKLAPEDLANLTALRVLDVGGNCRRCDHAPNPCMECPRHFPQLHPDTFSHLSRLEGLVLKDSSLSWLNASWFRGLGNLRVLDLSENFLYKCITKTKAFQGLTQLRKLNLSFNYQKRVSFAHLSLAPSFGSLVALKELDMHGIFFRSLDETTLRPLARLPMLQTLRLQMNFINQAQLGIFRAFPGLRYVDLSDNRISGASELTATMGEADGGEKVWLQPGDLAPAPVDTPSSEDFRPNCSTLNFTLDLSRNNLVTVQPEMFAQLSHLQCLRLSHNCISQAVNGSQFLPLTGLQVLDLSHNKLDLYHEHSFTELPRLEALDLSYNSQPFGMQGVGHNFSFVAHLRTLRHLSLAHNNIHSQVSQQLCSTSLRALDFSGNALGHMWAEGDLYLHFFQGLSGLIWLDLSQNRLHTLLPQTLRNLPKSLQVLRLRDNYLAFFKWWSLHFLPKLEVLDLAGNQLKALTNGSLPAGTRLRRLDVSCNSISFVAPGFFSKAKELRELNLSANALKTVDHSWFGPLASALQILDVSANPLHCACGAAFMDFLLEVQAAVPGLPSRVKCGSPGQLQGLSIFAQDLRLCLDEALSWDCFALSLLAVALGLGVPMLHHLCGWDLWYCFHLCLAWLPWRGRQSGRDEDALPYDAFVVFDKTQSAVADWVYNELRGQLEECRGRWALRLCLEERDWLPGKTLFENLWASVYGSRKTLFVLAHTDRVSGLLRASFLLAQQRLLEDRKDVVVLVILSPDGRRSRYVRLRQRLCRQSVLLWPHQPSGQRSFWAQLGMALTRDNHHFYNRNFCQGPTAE
# How it was run: as §1
# [3] = target: T3, human TLR8 (Homo sapiens, UniProt Q9NR97); experiment: TLR8 inhibition reporter assay (HEK-Blue cells, SEAP reporter, R848 stimulation); conditions: HEK-Blue cells overexpressing human TLR8, SEAP reporter, R848 15.9 μM
# T3 construct: host or cells: HEK-Blue cells (HEK293-derived reporter line)
# T3 sequence (Q9NR97 27-1041): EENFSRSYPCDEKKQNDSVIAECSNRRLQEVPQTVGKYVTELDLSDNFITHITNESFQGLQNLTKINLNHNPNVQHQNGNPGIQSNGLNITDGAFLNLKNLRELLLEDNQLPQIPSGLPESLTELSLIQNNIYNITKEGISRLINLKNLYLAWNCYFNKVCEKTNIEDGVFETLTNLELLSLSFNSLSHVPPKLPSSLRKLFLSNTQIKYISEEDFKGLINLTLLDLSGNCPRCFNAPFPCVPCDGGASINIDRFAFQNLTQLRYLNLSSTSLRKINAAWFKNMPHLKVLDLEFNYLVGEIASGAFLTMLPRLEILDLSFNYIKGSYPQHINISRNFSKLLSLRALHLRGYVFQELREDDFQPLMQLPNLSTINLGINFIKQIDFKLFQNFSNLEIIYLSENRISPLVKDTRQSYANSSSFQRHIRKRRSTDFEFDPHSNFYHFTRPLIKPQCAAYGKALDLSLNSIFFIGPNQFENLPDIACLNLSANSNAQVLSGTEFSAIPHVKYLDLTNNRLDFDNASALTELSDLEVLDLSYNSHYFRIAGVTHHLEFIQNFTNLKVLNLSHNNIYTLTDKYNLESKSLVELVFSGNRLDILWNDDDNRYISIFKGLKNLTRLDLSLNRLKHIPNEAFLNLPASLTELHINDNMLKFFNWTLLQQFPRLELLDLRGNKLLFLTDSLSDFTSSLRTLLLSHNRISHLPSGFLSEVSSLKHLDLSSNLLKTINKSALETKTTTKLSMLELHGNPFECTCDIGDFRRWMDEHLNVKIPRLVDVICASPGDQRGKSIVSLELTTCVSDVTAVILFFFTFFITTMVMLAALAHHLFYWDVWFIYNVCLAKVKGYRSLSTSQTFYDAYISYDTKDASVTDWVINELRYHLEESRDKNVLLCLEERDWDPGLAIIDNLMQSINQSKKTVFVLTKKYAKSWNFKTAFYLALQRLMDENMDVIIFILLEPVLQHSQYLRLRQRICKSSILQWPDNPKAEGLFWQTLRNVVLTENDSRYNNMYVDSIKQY
# How it was run: as §1
IC50 [1] [nM],IC50 [2] [nM],IC50 [3] [nM],Compound
< 100,100 to 1000,< 100,"Cc1cc(-c2[nH]c3ccc(C4CCN(C5CCS(=O)(=O)CC5)CC4)cc3c2C(C)C)cn2ccnc12 [Example 799, 4-(4-(3-isopropyl-2-(8-methylimidazo[1,2-a]pyridin-6-yl)-1H-indol-5-yl)piperidin-1-yl)tetrahydro-2H-thiopyran 1,1-dioxide]"
< 100,1000 to 50000,< 100,"Cc1cc(-c2[nH]c3ccc(C4CCN(C5COC5)CC4)cc3c2C(C)C)cc2ncnn12 [Example 727, 7-(3-isopropyl-5-(1-(oxetan-3-yl)piperidin-4-yl)-1H-indol-2-yl)-5-methyl-[1,2,4]triazolo[1,5-a]pyridine]"
< 100,100 to 1000,< 100,"COc1cc(-c2[nH]c3ccc(C4CCN(CC#N)CC4)cc3c2C(C)C)cn2ccnc12 [Example 950, 2-(4-(3-isopropyl-2-(8-methoxyimidazo[1,2-a]pyridin-6-yl)-1H-indol-5-yl)piperidin-1-yl)acetonitrile]"
< 100,1000 to 50000,< 100,"CC(C)c1c(-c2cn(C)c3ncccc23)[nH]c2ccc(C3CCN(CC(=O)N4CCOCC4)CC3)cc12 [Example 294, 2-(4-(3-isopropyl-2-(1-methyl-1H-pyrrolo[2,3-b]pyridin-3-yl)-1H-indol-5-yl)piperidin-1-yl)-1-morpholinoethan-1-one]"
100 to 1000,100 to 1000,100 to 1000,"CC(C)c1c(-c2ccc3cnnn3c2)[nH]c2ccc(C3CCN(CC(=O)N(C)C)CC3)cc12 [Example 299, 2-(4-(2-([1,2,3]triazolo[1,5-a]pyridin-6-yl)-3-isopropyl-1H-indol-5-yl)piperidin-1-yl)-N,N-dimethylacetamide]"
100 to 1000,100 to 1000,< 100,"CCc1c(-c2ccnc3[nH]ncc23)[nH]c2ccc(C3CCN(CC4(N)CC4)CC3)cc12 [Example 657, 1-((4-(3-ethyl-2-(1H-pyrazolo[3,4-b]pyridin-4-yl)-1H-indol-5-yl)piperidin-1-yl)methyl)cyclopropan-1-amine]"
100 to 1000,> 50000,1000 to 50000,"Cc1cn2cc(-c3[nH]c4ccc(C5CCN(C(=O)CC(C)(C)O)CC5)cc4c3CC(F)F)ccc2n1 [Example 607, 1-(4-(3-(2,2-difluoroethyl)-2-(2-methylimidazo[1,2-a]pyridin-6-yl)-1H-indol-5-yl)piperidin-1-yl)-3-hydroxy-3-methylbutan-1-one]"
100 to 1000,1000 to 50000,< 100,"CCc1c(-c2ccnc3[nH]ncc23)[nH]c2ccc(C3CCN(Cc4cnn(C)c4)CC3)cc12 [Example 901, 4-(3-ethyl-5-(1-((1-methyl-1H-pyrazol-4-yl)methyl)piperidin-4-yl)-1H-indol-2-yl)-1H-pyrazolo[3,4-b]pyridine]"

# The next lines start with the compound.
Compound,IC50 [1] [nM],IC50 [2] [nM],IC50 [3] [nM]
"CC(C)c1c(-c2ccc3c(c2)oc(=O)n3C)[nH]c2ccc(C3CCNCC3)cc12 [Example 89, 6-(3-isopropyl-5-(piperidin-4-yl)-1H-indol-2-yl)-3-methylbenzo[d]oxazol-2(3H)-one]",100 to 1000,100 to 1000,< 100
"Cc1ccnc2c1c(-c1[nH]c3ccc(C4CCNCC4)cc3c1C(C)C)cn2C [Example 35, 3-(3-isopropyl-5-(piperidin-4-yl)-1H-indol-2-yl)-1,4-dimethyl-1H-pyrrolo[2,3-b]pyridine]",< 100,1000 to 50000,< 100
"CCc1c(-c2cnc3c(N)n[nH]c3c2)[nH]c2ccc(C3CCNCC3)cc12 [Example 240, 6-(3-ethyl-5-(piperidin-4-yl)-1H-indol-2-yl)-1H-pyrazolo[4,3-b]pyridin-3-amine]",1000 to 50000,1000 to 50000,1000 to 50000
"CCc1c(-c2ccnc3[nH]ncc23)[nH]c2ccc(C3CCNCC3F)cc12 (stereo not drawn) [Example 173, 4-(3-ethyl-5-(3-fluoropiperidin-4-yl)-1H-indol-2-yl)-1H-pyrazolo[3,4-b]pyridine]",100 to 1000,1000 to 50000,< 100
"CCc1c(-c2c[nH]c3ncccc23)[nH]c2ccc(C3CCNCC3)cc12 [Example 243, 3-(3-ethyl-5-(piperidin-4-yl)-1H-indol-2-yl)-1H-pyrrolo[2,3-b]pyridine]",< 100,100 to 1000,< 100
"CC(C)c1c(-c2ccc3nc(N)cn3n2)[nH]c2ccc(C3CCNCC3)cc12 [Example 24, 6-(3-isopropyl-5-(piperidin-4-yl)-1H-indol-2-yl)imidazo[1,2-b]pyridazin-2-amine]",1000 to 50000,1000 to 50000,1000 to 50000
"CCc1c(-c2ccc3ncc(C)n3n2)[nH]c2ccc(C3CCNCC3)cc12 [Example 103, 6-(3-ethyl-5-(piperidin-4-yl)-1H-indol-2-yl)-3-methylimidazo[1,2-b]pyridazine]",1000 to 50000,1000 to 50000,100 to 1000
